Like-named read-outs stand apart in the source and are kept apart here.
Legend:
[1] = biological target: T1, human orexin-2 receptor (Homo sapiens, UniProt O43614); test: FLIPR calcium assay, antagonism of orexin-A in CHO cells expressing the human orexin-2 receptor; type: cell-based; details: read-out: OX2 IC50
T1 construct: expressed in transfected cells; host or cells: Chinese hamster ovary (CHO) cells, G418 selection
T1 sequence (O43614 1-444): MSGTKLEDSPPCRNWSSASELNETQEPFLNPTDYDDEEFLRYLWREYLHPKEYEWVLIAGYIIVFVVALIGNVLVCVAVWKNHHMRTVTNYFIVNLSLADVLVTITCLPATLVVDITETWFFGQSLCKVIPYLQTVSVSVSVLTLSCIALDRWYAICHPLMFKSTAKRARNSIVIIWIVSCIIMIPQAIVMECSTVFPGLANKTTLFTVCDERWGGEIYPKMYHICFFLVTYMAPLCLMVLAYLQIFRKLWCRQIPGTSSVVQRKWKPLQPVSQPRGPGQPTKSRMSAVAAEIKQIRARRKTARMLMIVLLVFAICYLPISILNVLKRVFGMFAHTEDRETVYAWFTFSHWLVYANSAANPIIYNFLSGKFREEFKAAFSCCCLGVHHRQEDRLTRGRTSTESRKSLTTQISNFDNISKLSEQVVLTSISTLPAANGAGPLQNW
Description: (§1) Chinese hamster ovary (CHO) cells expressing the human orexin-1 receptor and the human orexin-2 receptor, respectively, are grown in culture medium (Ham F-12 with L-Glutamine) containing 300 μg/ml G418, 100 U/ml penicillin, 100 μg/ml streptomycin and 10% heat inactivated fetal calf serum (FCS). The cells are seeded at 20′000 cells/well into 384-well black clear bottom sterile plates (Greiner). The seeded plates are incubated overnight at 37° C. in 5% CO2. Human orexin-A as an agonist is prepared as 1 mM stock solution in MeOH:water (1:1), diluted in HBSS containing 0.1% bovine serum albumin (BSA), NaHCO3: 0.375 g/l and 20 mM HEPES for use in the assay at a final concentration of 3 nM. Antagonists are prepared as 10 mM stock solution in DMSO, then diluted in 384-well plates, first in DMSO, then in HBSS containing 0.1% bovine serum albumin (BSA), NaHCO3: 0.375 g/l and 20 mM HEPES. On the day of the assay, 50 μl of staining buffer (HBSS containing 1% FCS, 20 mM HEPES, NaHCO3: 0.375 g/l, 5 mM probenecid (Sigma) and 3 μM of the fluorescent calcium indicator fluo-4 AM (1 mM stock solution in DMSO, containing 10% pluronic) is added to each well. The 384-well cell-plates are incubated for 50 min at 37° C. in 5% CO2 followed by equilibration at rt for 30-120 min before measurement. Within the Fluorescent Imaging Plate Reader (FLIPR2 or FLIPR Tetra, Molecular Devices), antagonists are added to the plate in a volume of 10 μl/well, incubated for 10 min and finally 10 μl/well of agonist is added. Fluorescence is measured for each well at 1 second intervals, and the height of each fluorescence peak is compared to the height of the fluorescence peak induced by 3 nM orexin-A with vehicle in place of antagonist. For each antagonist, the IC50 value (the concentration of compound needed to inhibit 50% of the agonistic response) is determined. Optimized conditions may be achieved by adjustment of pipetting speed and cell splitting regime. The calculated IC50 values of the compounds may fluctuate depending on the daily cellular assay performance. Fluctuations of this kind are known to those skilled in the art.

[2] = biological target: T2, human orexin-1 receptor (Homo sapiens, UniProt O43613); test: FLIPR calcium assay, antagonism of orexin-A in CHO cells expressing the human orexin-1 receptor; type: cell-based; details: read-out: OX1 IC50
T2 construct: expressed in transfected cells; host or cells: Chinese hamster ovary (CHO) cells, G418 selection
T2 sequence (O43613 1-425): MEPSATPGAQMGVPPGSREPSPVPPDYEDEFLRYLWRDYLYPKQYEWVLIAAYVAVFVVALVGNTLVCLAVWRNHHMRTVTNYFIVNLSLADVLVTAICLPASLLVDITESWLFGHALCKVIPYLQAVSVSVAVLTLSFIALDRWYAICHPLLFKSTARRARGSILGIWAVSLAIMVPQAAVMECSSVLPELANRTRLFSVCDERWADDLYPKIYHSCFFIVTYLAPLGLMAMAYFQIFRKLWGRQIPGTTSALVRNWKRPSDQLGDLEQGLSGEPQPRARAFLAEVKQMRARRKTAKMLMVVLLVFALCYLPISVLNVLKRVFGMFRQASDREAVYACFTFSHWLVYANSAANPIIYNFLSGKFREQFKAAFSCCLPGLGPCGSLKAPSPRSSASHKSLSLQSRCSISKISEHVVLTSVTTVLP
Description: as §1

[3] = measured with FLIPR 2, 3 nM orexin-A, CHO cells
[4] = measured with FLIPR Tetra (marked *), 3 nM orexin-A, CHO cells
[5] = measured with FLIPR Tetra (marked *), geometric mean from n = 2 values

| SMILES | IC50 [1, 4] [nM] | IC50 [2, 4] [nM] | other results |
| --- | --- | --- | --- |
| Cc1nc(C(=O)N2[C@@H]3CC[C@@H](C3)[C@H]2CNC(=O)c2cccc3cccnc23)c(-c2cccc(Cl)c2)s1 [Example 1, Quinoline-8-carboxylic acid {(1R,3S,4S)-2-[5-(3-chloro-phenyl)-2-methyl-thiazole-4-carbonyl]-2-aza-bicyclo[2.2.1]hept-3-ylmethyl}-amide] | – | – | IC50 [1, 3]: 622 nM; IC50 [2, 3]: 59 nM |
| Nc1nc(C(=O)N2[C@@H]3CC[C@@H](C3)[C@H]2CNC(=O)c2cccc3c2OCCO3)c(-c2cccc(F)c2)s1 [Example 5, 2,3-Dihydro-benzo[1,4]dioxine-5-carboxylic acid {(1R,3S,4S)-2-[2-amino-5-(3-fluoro-phenyl)-thiazole-4-carbonyl]-2-aza-bicyclo[2.2.1]hept-3-ylmethyl}-amide] | – | – | IC50 [1, 3]: 29 nM; IC50 [2, 3]: 149 nM |
| Cc1ncc(C(=O)N2[C@@H]3CC[C@@H](C3)[C@H]2CNC(=O)c2cccc3occc23)c(-c2ccccc2)n1 [Example 11, Benzofuran-4-carboxylic acid [(1R,3S,4S)-2-(2-methyl-4-phenyl-pyrimidine-5-carbonyl)-2-aza-bicyclo[2.2.1]hept-3-ylmethyl]-amide] | – | – | IC50 [1, 3]: 2140 nM; IC50 [2, 3]: 75 nM |
| Cc1nc2sccn2c1C(=O)NC[C@@H]1[C@H]2CC[C@H](C2)N1C(=O)c1nc(C2CC2)sc1-c1ccccc1 [Example 31, 6-Methyl-imidazo[2,1-b]thiazole-5-carboxylic acid [(1R,3S,4S)-2-(2-cyclopropyl-5-phenyl-thiazole-4-carbonyl)-2-aza-bicyclo[2.2.1]hept-3-ylmethyl]-amide] | 55 | 138 | – |
| Cc1nc2sccn2c1C(=O)NC[C@@H]1[C@H]2CC[C@H](C2)N1C(=O)c1ncsc1-c1ccc(F)cc1 [Example 35, 6-Methyl-imidazo[2,1-b]thiazole-5-carboxylic acid {(1R,3S,4S)-2-[5-(4-fluoro-phenyl)-thiazole-4-carbonyl]-2-aza-bicyclo[2.2.1]hept-3-ylmethyl}-amide] | 808 | 278 | – |
| CCn1nc(C)cc1C(=O)NC[C@@H]1[C@H]2CC[C@H](C2)N1C(=O)c1ccccc1-c1ccccc1 [Example 40, 2-Ethyl-5-methyl-2H-pyrazole-3-carboxylic acid [(1R,3S,4S)-2-(biphenyl-2-carbonyl)-2-aza-bicyclo[2.2.1]hept-3-ylmethyl]-amide] | – | – | IC50 [1, 3]: 441 nM; IC50 [2, 3]: > 10000 nM |
| Cc1nc(C(=O)N2[C@@H]3CC[C@@H](C3)[C@H]2CNc2ncc(Br)cn2)c(-c2ccccc2)s1 [Example 46, {(1R,3S,4S)-3-[(5-Bromo-pyrimidin-2-ylamino)-methyl]-2-aza-bicyclo[2.2.1]hept-2-yl}-(2-methyl-5-phenyl-thiazol-4-yl)-methanone] | 364 | 488 | – |
| CN(C)c1nc(C(=O)N2[C@@H]3CC[C@@H](C3)[C@H]2CNC(=O)c2nn(C)c3ccccc23)c(-c2ccccc2)s1 [Example 63, 1-Methyl-1H-indazole-3-carboxylic acid [(1R,3S,4S)-2-(2-dimethylamino-5-phenyl-thiazole-4-carbonyl)-2-aza-bicyclo[2.2.1]hept-3-ylmethyl]-amide] | 61 | 307 | – |
| Cc1nc2c(C(=O)NC[C@@H]3[C@H]4CC[C@H](C4)N3C(=O)c3nc(N(C)C)sc3-c3cccc(F)c3)cccc2o1 [Example 79, 2-Methyl-benzooxazole-4-carboxylic acid {(1R,3S,4S)-2-[2-dimethylamino-5-(3-fluoro-phenyl)-thiazole-4-carbonyl]-2-aza-bicyclo[2.2.1]hept-3-ylmethyl}-amide] | – | – | IC50 [1, 5]: 71 nM; IC50 [2, 5]: 64 nM |
| O=C(NC[C@@H]1[C@H]2CC[C@H](C2)N1C(=O)c1sccc1-c1ccc2c(c1)OCO2)c1cccc2ncsc12 [Example 94, Benzothiazole-7-carboxylic acid [(1R,3S,4S)-2-(3-benzo[1,3]dioxol-5-yl-thiophene-2-carbonyl)-2-aza-bicyclo[2.2.1]hept-3-ylmethyl]-amide] | 81 | 1270 | – |
| COc1cccc(-c2sc(N(C)C)nc2C(=O)N2[C@@H]3CC[C@@H](C3)[C@H]2CNC(=O)c2cccc3ncsc23)c1 [Example 97, Benzothiazole-7-carboxylic acid {(1R,3S,45)-2-[2-dimethylamino-5-(3-methoxy-phenyl)-thiazole-4-carbonyl]-2-aza-bicyclo[2.2.1]hept-3-ylmethyl}-amide] | – | – | IC50 [1, 5]: 14 nM; IC50 [2, 5]: 12 nM |
| CN(C)c1nc(C(=O)N2[C@@H]3CC[C@@H](C3)[C@H]2CNC(=O)c2nsc3ccccc23)c(-c2cccc(F)c2)s1 [Example 105, Benzo[d]isothiazole-3-carboxylic acid {(1R,3S,4S)-2-[2-dimethylamino-5-(3-fluoro-phenyl)-thiazole-4-carbonyl]-2-aza-bicyclo[2.2.1]hept-3-ylmethyl}-amide] | 421 | 65 | – |
| O=C(NC[C@@H]1[C@H]2CC[C@H](C2)N1C(=O)c1nccnc1-c1ccc2cc[nH]c2c1)c1cccc2ncsc12 [Example 109, Benzothiazole-7-carboxylic acid {(1R,3S,4S)-2-[3-(1H-indol-6-yl)-pyrazine-2-carbonyl]-2-aza-bicyclo[2.2.1]hept-3-ylmethyl}-amide] | 19 | 707 | – |
| O=C(NC[C@H]1[C@@H]2CC[C@@H](C2)N1C(=O)c1nc(N2CCCC2)sc1-c1ccccc1F)c1cccc2ncsc12 [Example 110, Benzothiazole-7-carboxylic acid {(1S,3R,4R)-2-[5-(2-fluoro-phenyl)-2-pyrrolidin-1-yl-thiazole-4-carbonyl]-2-aza-bicyclo[2.2.1]hept-3-ylmethyl}-amide] | 30 | 23 | – |

Now from value to compound, other results behind:

| IC50 [1, 4] [nM] | IC50 [2, 4] [nM] | SMILES | other results |
| --- | --- | --- | --- |
| 15 | 80 | COc1nc(C(=O)N2[C@@H]3CC[C@@H](C3)[C@H]2CNC(=O)c2cccc3ncsc23)c(-c2cccc(Cl)c2)s1 [Example 80, Benzothiazole-7-carboxylic acid {(R,S,S)-2-[5-(3-chloro-phenyl)-2-methoxy-thiazole-4-carbonyl]-2-aza-bicyclo[2.2.1]hept-3-ylmethyl}-amide] | – |
| 37 | 305 | Cc1nc(C(=O)N2[C@@H]3CC[C@@H](C3)[C@H]2CNC(=O)c2cccc3ncsc23)c(-c2cccc(OC(F)(F)F)c2)o1 [Example 104, Benzothiazole-7-carboxylic acid {(1R,3S,4S)-2-[2-methyl-5-(3-trifluoromethoxy-phenyl)-oxazole-4-carbonyl]-2-aza-bicyclo[2.2.1]hept-3-ylmethyl}-amide] | – |
| 32 | 117 | CCN(C)c1nc(C(=O)N2[C@H]3CC[C@H](C3)[C@@H]2CNC(=O)c2cccc3ncsc23)c(-c2ccc(F)cc2)s1 [Example 118, Benzothiazole-7-carboxylic acid {(1S,3R,4R)-2-[2-(ethyl-methyl-amino)-5-(4-fluoro-phenyl)-thiazole-4-carbonyl]-2-aza-bicyclo[2.2.1]hept-3-ylmethyl}-amide] | – |
